In patent publication US10294202B2, “Pyrrolidinones as herbicides” (FMC Corporation, priority 2013, dated 2019):

Legend:
[1] = tested on: barnyardgrass; test: Test A pre-/postemergence herbicide test; type: in vivo, Echinochloa crus-galli
Outline: (§1)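 Approximately 10 days after treatment in the greenhouse, plants were compared with untreated controls and given a 0–100 visual injury rating. Applications: preemergence directed soil spray; postemergence on 2–10 cm plants at the one- to two-leaf stage.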

[2] = tested on: pigweed; test: Test A pre-/postemergence herbicide test; type: in vivo, Amaranthus retroflexus
Outline: as §1

[3] = tested on: corn; test: Test A pre-/postemergence herbicide test; type: in vivo, Zea mays; conditions: Postemergence
Outline: as §1

[4] = tested on: sedge, umbrella; test: Test B flooded paddy test; type: in vivo, Cyperus difformis; conditions: 500 g ai/ha, Flood; scale of 0 to 100 where 0 is no effect and 100 is complete control
Outline: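 Visual ratings from 0, meaning no effect, up to 100, meaning complete control, were made by comparison with untreated controls 13 to 15 days after treatment. Test compounds went straight into floodwater standing 3 cm over the soil of pots holding 2-leaf seedlings.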

[5] = tested on: ryegrass, Italian; test: Test C pre-/postemergence herbicide test; type: in vivo, Lolium multiflorum
Outline: (§2)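 Plants grown and held in a greenhouse for 13 to 15 days post-spray, then rated 0–100 by visual comparison with controls. Pre treatments targeted seeds in loam and sand; post treatments targeted 1- to 4-leaf plants in peat-based potting medium.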

[6] = tested on: galium; test: Test C pre-/postemergence herbicide test; type: in vivo, Galium aparine; conditions: Preemergence
Outline: as §2

[7] = tested on: corn; test: Test C pre-/postemergence herbicide test; type: in vivo, Zea mays
Outline: as §2

[8] = tested on: foxtail, giant; test: Test C pre-/postemergence herbicide test; type: in vivo, Setaria faberii
Outline: as §2

[9] = tested on: ragweed; test: Test C pre-/postemergence herbicide test; type: in vivo, Ambrosia elatior
Outline: as §2

[10] = tested on: soybean; test: Test C pre-/postemergence herbicide test; type: in vivo, Glycine max
Outline: as §2

[11] = tested on: oat, wild; test: Test C pre-/postemergence herbicide test; type: in vivo, Avena fatua; conditions: Postemergence
Outline: as §2

[12] = Postemergence, 125 g ai/ha, visual rating on 0 to 100 scale (0 no effect, 100 complete control), approx. 10 days
[13] = Postemergence, 500 g ai/ha, 0 to 100 scale (0 no effect, 100 complete control)
[14] = Preemergence, 125 g ai/ha, 0 to 100 scale where 0 is no effect and 100 is complete control
[15] = Preemergence, 500 g ai/ha, visual rating on 0 to 100 scale (0 no effect, 100 complete control)
[16] = Postemergence, 31 g ai/ha, scale 0 to 100 (0 no effect, 100 complete control)
[17] = Postemergence, 62 g ai/ha, scale 0 (no effect) to 100 (complete control)
[18] = Postemergence, 125 g ai/ha, scale 0 to 100 (0 no effect, 100 complete control)
[19] = Postemergence, 250 g ai/ha, scale 0 to 100 (0 no effect, 100 complete control)
[20] = Preemergence, 62 g ai/ha, scale 0 to 100 (0 no effect, 100 complete control)
[21] = Preemergence, 125 g ai/ha, scale 0 to 100
[22] = Preemergence, 31 g ai/ha, scale 0 to 100, 0 is no effect and 100 is complete control

With O=C1NCC(c2cccc(C(F)(F)F)c2)C1C(=O)Nc1ccccc1Cl (centres unmarked) [Compound 312] the “Plant response rating, Barnyardgrass” value [1, 12] was 80, the “Plant response rating, Barnyardgrass” value [1, 13] was 90 and the “Plant response rating, Barnyardgrass” value [1, 14] was 80. For the same molecule, the “Barnyardgrass plant response rating” value [1, 15] was 90, the “Plant response rating, Pigweed” value [2, 12] was 20 and the “Plant response rating, Pigweed” value [2, 13] was 30. For the same molecule, the “Plant response rating, Pigweed” value [2, 14] was 0, the “Pigweed plant response rating” value [2, 15] was 20 and the “Plant response rating, Corn” value ([3]; 125 g ai/ha, visual rating on 0 to 100 scale (0 no effect, 100 complete control), approx. 10 days) was 60. For the same molecule, the “Plant response rating, Corn” value ([3]; 500 g ai/ha, 0 to 100 scale (0 no effect, 100 complete control)) was 80, the “Plant response rating, Sedge, Umbrella” value [4] was 0 and the “Plant response rating, Ryegrass, Italian” value [5, 16] was 0. For the same molecule, the “Plant response rating, Ryegrass, Italian” value [5, 17] was 0, the “Plant response rating, Ryegrass, Italian” value [5, 18] was 35 and the “Plant response rating, Ryegrass, Italian” value [5, 19] was 10. For the same molecule, the “Ryegrass, Italian plant response rating” value [5, 20] was 30, the “Plant response rating, Ryegrass, Italian” value [5, 21] was 35 and the “Plant response rating (scale of 0 to 100), Ryegrass, Italian” value ([5]; Preemergence, 250 g ai/ha) was 30. For the same molecule, the “Galium plant response rating” value ([6]; 31 g ai/ha, scale 0 to 100, 0 is no effect and 100 is complete control) was 90, the “Galium plant response rating” value ([6]; 62 g ai/ha, scale 0 to 100 (0 no effect, 100 complete control)) was 0 and the “Plant response rating, Galium” value ([6]; 125 g ai/ha, scale 0 to 100) was 5. For the same molecule, the “Plant response rating (scale of 0 to 100), Galium” value ([6]; 250 g ai/ha) was 80, the “Plant response rating, Corn” value [7, 16] was 0 and the “Plant response rating, Corn” value [7, 17] was 15. The “Plant response rating, Corn” value [7, 18] was 10, the “Plant response rating, Corn” value [7, 19] was 10 and the “Corn plant response rating” value [7, 22] was 10. The “Corn plant response rating” value [7, 20] was 60, the “Plant response rating, Corn” value [7, 21] was 55 and the “Plant response rating (scale of 0 to 100), Corn” value ([7]; Preemergence, 250 g ai/ha) was 70. The “Plant response rating, Foxtail, Giant” value [8, 16] was 55, the “Plant response rating, Foxtail, Giant” value [8, 17] was 75 and the “Plant response rating, Foxtail, Giant” value [8, 18] was 75. The “Plant response rating, Foxtail, Giant” value [8, 19] was 80, the “Foxtail, Giant plant response rating” value [8, 22] was 90 and the “Foxtail, Giant plant response rating” value [8, 20] was 90. For the same molecule, the “Plant response rating, Foxtail, Giant” value [8, 21] was 90, the “Plant response rating (scale of 0 to 100), Foxtail, Giant” value ([8]; Preemergence, 250 g ai/ha) was 95 and the “Plant response rating, Ragweed” value [9, 16] was 40. The “Plant response rating, Ragweed” value [9, 17] was 35, the “Plant response rating, Ragweed” value [9, 18] was 45 and the “Plant response rating, Ragweed” value [9, 19] was 55. The “Ragweed plant response rating” value [9, 20] was 0, the “Plant response rating, Ragweed” value [9, 21] was 50 and the “Plant response rating (scale of 0 to 100), Ragweed” value ([9]; Preemergence, 250 g ai/ha) was 10. The “Plant response rating, Soybean” value [10, 16] was 0, the “Plant response rating, Soybean” value [10, 17] was 0 and the “Plant response rating, Soybean” value [10, 18] was 0. For the same molecule, the “Plant response rating, Soybean” value [10, 19] was 0, the “Soybean plant response rating” value [10, 20] was 0 and the “Plant response rating, Soybean” value [10, 21] was 0. For the same molecule, the “Plant response rating (scale of 0 to 100), Soybean” value ([10]; Preemergence, 250 g ai/ha) was 0, the “Plant response rating, Oat, Wild” value ([11]; 31 g ai/ha, scale 0 to 100 (0 no effect, 100 complete control)) was 0 and the “Plant response rating, Oat, Wild” value ([11]; 62 g ai/ha, scale 0 (no effect) to 100 (complete control)) was 0. The “Plant response rating, Oat, Wild” value ([11]; 125 g ai/ha, scale 0 to 100 (0 no effect, 100 complete control)) was 0 and the “Plant response rating, Oat, Wild” value ([11]; 250 g ai/ha, scale 0 to 100 (0 no effect, 100 complete control)) was 0.
